Patent publication US7524503B2, “Human cytomegalovirus (HCMV) cytotoxic T cell epitopes, polyepitopes compositions comprising same and diagnostic and prophylactic and therapeutic uses therefor” (priority 2001, dated 2009)
Like-named read-outs stand apart in the source and are kept apart here.

Key:
Assay type in all cases: cell-based, human
[1] = test system: PBMC from healthy HCMV seropositive donors; experiment: IFN-γ ELISPOT assay; conditions: peptide 10 μg/ml
Description: ELISPOT assay was used to assess whether stimulation of PBMC from a large panel of seropositive donors with HCMV peptides could induce IFN-γ expression in T cells. Briefly, a 96-well nitrocellulose plate (Multiscreen, Millipore) was coated overnight at 4° C. with mouse monoclonal antibody anti-IFN-γ IgG1 (10 μg/ml; Mabtech Nacka, Sweden). The plate was then washed six times in Phosphate Buffered Saline (PBS) and blocked for 1 hour at 37° C. with PBS supplemented with 5% FCS. The blocking solution was removed and PBMC from healthy HCMV seropositive donors were added at a concentration of 2.5×10^5 cells per well in growth medium. These cells were incubated for 18 h at 37° C. in a 5% CO2 atmosphere in the presence of synthetic peptides from HCMV antigens (10 μg/ml). After incubation, the plate was washed three times with PBS supplemented with 0.05% Tween, followed by three washes with PBS alone. Biotinylated anti-IFN-γ (Mabtech, Nacka Sweden) detection antibody was added to each well at a final concentration of 1 μg/ml in PBS. The plates were incubated at room temperature in the dark for 4 h and then washed, as described above. Streptavidin-Alkaline phosphatase (Sigma) was added to each well at a final concentration of 1 μg/ml in PBS and incubated at room temperature in the dark for 2 h. After a final wash with PBS, the substrate, 5-bromo-4-chloro-3-indolyl phosphate and nitro blue tetrazolium, was added to each well and the plates incubated for 30 min at RT. Cells that produced IFN-γ in response to the presence of peptide were detected as purple spots on the nitrocellulose membrane of each well. The spots were counted automatically using a closed-circuit camera (CCD) and ImagePro image analysis software or automated ELISPOT reader (AID, Germany). The T cell precursor frequency for each peptide was based on the total number of PBMC in the well and the number of peptide-specific spots per well, over an average of 3 wells. The number of peptide-specific spots was also calculated by subtracting the negative control values, which consisted of PBMC without peptide (an average of 3 wells), from the test wells.
To determine whether memory CTL responses against the predictive HCMV potential epitopes could be detected in healthy seropositive virus carriers, we used the ELISPOT assay, which allows rapid identification of CTL epitopes without prolonged in vitro culture.
We tested epitopes that were restricted for HLA A1, A3, A24, A26, B7, B8, B27, B35 and B44 in ELISPOT assays, to determine whether memory T cell responses could be detected in healthy HLA-matched virus carriers. PBMC from a cohort of healthy virus carriers (Table 2) were stimulated with individual peptides and the cells that produced IFN-γ were detected. CTL epitopes that were restricted through either HLA A1, A3, A24, A26, B7, B8 or B27, were identified.
Thus, a total of 450 peptides were produced. ELISPOT assays were used to determine whether ex vivo memory T cell responses could be detected in a cohort of 14 healthy virus carriers (Table 2). PBMC were stimulated with individual peptides and the cells that produced IFN-γ were detected.

CD4+ T cells = experiment: CD4+/CD8+ analysis of 20-mer peptides (intracellular IFN-γ staining or depletion ELISPOT)
Description: (§1) To determine whether a particular 20-mer peptide contained either a CD4^+- or CD8^+-restricted epitope, or both, CD4^+/CD8^+ cell depletion ELISPOT assays were performed on PBMC from healthy virus carriers. For any one experiment, three populations of cells were used: a) CD8^+-depleted PBMC, b) CD4^+-depleted PBMC, and c) non-depleted PBMC. These populations of cells were tested concurrently with the same peptides in a conventional ELISPOT assay as described herein above. DYNABEADS M-450 (Dynal, Oslo, Norway) that bound specifically to CD4^+- or CD8^+ cells were used to perform the depletion essentially according to manufacturers instructions. Beads were washed twice in cold PBS supplemented with 2% FCS using magnetic isolation. The requisite number of cells was resuspended in cold PBS supplemented with 2% FCS, added to the beads and then incubated at 4° C., in the dark, for 30 mins (CD8^+ beads) or 60 mins (CD4^+ beads). Populations were depleted of CD4^+ or CD8^+ cells using magnetic separation. After depletion, the non-attached cells were removed and washed once in growth medium, counted and used in conventional ELISPOT assay. Depleted cells were used at 1.7×10^5 cells per well and the non-depleted population was used at the standard 2.5×10^5 cells per well. After the depletion step, each respective cell population was assessed for the purity of CD4^+ and CD8^+ T cells by three-colour flow cytometry. Samples of depleted cell populations were stained with anti-CD3 antibody directly conjugated to fluorescein isothiocyanate (FITC), anti-CD4 antibody conjugated with phycoerythrin (PE) fluorochrome, and anti-CD8 antibody conjugated with Tricolor fluorochrome (described below). The percent of CD3^+/CD4^+ cells present within the CD8^+-depleted population and the percent of CD3^+/CD8^+ cells present within the CD4^+-depleted populations were assessed on FACSCalibur cytometer (Becton Dickinson). The purity of each population was greater than 90% and the results from the ELISPOT assays are expressed as the percentage of CD4+ or CD8^+ cells within the depleted populations that responded toward each peptide by producing IFN-γ.
(§2) PBMCs were incubated at 37° C. in RPMI+10% FCS with and without 10 μg/ml peptides for 6 hours. Golgiplug™ (Pharmingen, San Diego, Calif., USA) was added to the samples according to manufacturer's instructions during the second hour of incubation and cells activated with 25 ng/ml phorbol 12-myristidate 13-acetate (PMA; Sigma-Aldrich Co, St. Louis Mo.) and 1 μg/ml iomomycin (Sigma) acted as a positive control. Following the incubation, 1×10^6 cells/sample were washed and resuspended in staining buffer consisting of PBS with GolgiPlug™, 3% FCS and sodium azide. Cells were then stained with FITC conjugated anti-CD3-FITC (UCHT1, Immunotech, Marseille, France), and either Tricolor (TRI) conjugated anti-CD4 (S3.5, Caltag, Burlingame, Calif.) or anti-CD8 (3B5, Caltag) for 30 minutes, 4° C. in the dark. The cells were fixed for 20 min at 4° C. with Cytofix/Cytoperm™ (BD Biosciences) and resuspended in Perm/Wash™ permeabilization buffer (BD Biosciences) according to manufacturers protocol. Fixed cells were stained with phycoerythrin (PE) conjugated anti-human IFN-γ (B27, Pharmingen) for 30 min at 4° C. in the dark. As a negative control, cells were stained with appropriate isotype matched control antibodies. Cells were washed twice in permeabilization buffer and resuspended in staining buffer before analysis by three-colour flow cytometry on a FACSCalibur cytometer (BD Biosciences). All data analysis was carried out using FlowJo software (Tree Star, Inc. San Carlos, CA).
(§3) When using 20-mer peptides to map epitopes by ELISPOT, it is possible that some responses may be MHC class-II restricted, and not necessarily restricted through HLA class I alleles. It was evident throughout this study that some epitopes identified using ELISPOT could not be confirmed using cytotoxicity analysis. […]

CD8+ T cells = experiment: as above
Description: as §1, §2, §3

[2] = test system: peptide-sensitized autologous PHA blasts or LCLs; parameters: key to CTL response: Y: Yes; ND: Not detected
[3] = overlapping 20mer peptides, Table 4

Sequence: SDSESESEEMKCSSGGGASV (human cytomegalovirus IE2 CTL epitope peptide)
- ELISPOT Responses (SFC/10^6 PBMC) ([1]; donor sixteen): TC(147) SFC/10^6 PBMC
- Responding cells (% CD4) (CD4+ T cells; donor sixteen): 0.01%
- Responding cells (% CD8) (CD8+ T cells; donor sixteen): 0.22%

Sequence: SSSSSSCSSASDSESESEEM (human cytomegalovirus IE2 CTL epitope peptide)
- ELISPOT Responses (SFC/10^6 PBMC) ([1]; donor eight): 125 SFC/10^6 PBMC
- ELISPOT Responses (SFC/10^6 PBMC) ([1]; donor sixteen): 93 SFC/10^6 PBMC
- Responding cells (% CD4) (CD4+ T cells; donor eight): 0%
- Responding cells (% CD4) (CD4+ T cells; donor sixteen): 0%
- Responding cells (% CD8) (CD8+ T cells; donor eight): 0.01%
- Responding cells (% CD8) (CD8+ T cells; donor sixteen): 0.05%

Sequence: TGPRKKKSKRISELDNEKVR
- ELISPOT Responses (SFC/10^6 PBMC) ([1]; donor delta): 162 SFC/10^6 PBMC
- ELISPOT Responses (SFC/10^6 PBMC) ([1]; donor seven): 148 SFC/10^6 PBMC
- Responding cells (% CD4) (CD4+ T cells; donor seven): SB(0.02/0.02) %
- Responding cells (% CD8) (CD8+ T cells; donor seven): SB(0.02/0.02) %

Sequence: VLCCYVLEETSVMLAKRPLI (human cytomegalovirus IE1 CTL epitope peptide)
- ELISPOT Responses (SFC/10^6 PBMC) ([1]; donor seven): SB(2171) SFC/10^6 PBMC
- CTL response [2, 3]: Y

Sequence: CLPLMQKFPKQVMVRIFSTN (human cytomegalovirus IE2 CTL epitope peptide)
- ELISPOT Responses (SFC/10^6 PBMC) ([1]; donor sixteen): TC(256) SFC/10^6 PBMC
- Responding cells (% CD4) (CD4+ T cells; donor sixteen): 0%
- Responding cells (% CD8) (CD8+ T cells; donor sixteen): 0.15%

Sequence: VLEETSVML (human cytomegalovirus IE1 CTL epitope peptide)
- ELISPOT Responses (SFC/10^6 PBMC) ([1]; donor fifteen): 245 SFC/10^6 PBMC
- ELISPOT Responses (SFC/10^6 PBMC) ([1]; donor seven): 3752 SFC/10^6 PBMC
- CTL activity of polyclonal CTL line ([2]; donor seven, effector:target ratio 10:1): strong CTL activity
- CTL response ([2]; predicted epitopes, Table 3): Y

Sequence: QPFMRPHERNGFTVLCPKNM
- ELISPOT Responses (SFC/10^6 PBMC) ([1]; donor delta): SE(783) SFC/10^6 PBMC
- Responding cells (% CD4) (CD4+ T cells; donor two): 0.05%
- Responding cells (% CD8) (CD8+ T cells; donor two): 0%

Sequence: ILARNLVPMVATVQGQNLKY
- ELISPOT Responses (SFC/10^6 PBMC) ([1]; donor four): 500 SFC/10^6 PBMC
- ELISPOT Responses (SFC/10^6 PBMC) ([1]; donor seven): 216 SFC/10^6 PBMC
- ELISPOT Responses (SFC/10^6 PBMC) ([1]; donor three): MW(229) SFC/10^6 PBMC
- CTL response [2, 3]: Y

Sequence: AHELVCSMENTRATKMQVIG
- ELISPOT Responses (SFC/10^6 PBMC) ([1]; donor alpha): 169 SFC/10^6 PBMC
- ELISPOT Responses (SFC/10^6 PBMC) ([1]; donor seven): 231 SFC/10^6 PBMC
- Responding cells (% CD4) (CD4+ T cells; donor seven): 0.04%
- Responding cells (% CD8) (CD8+ T cells; donor seven): 0.01%

Sequence: DQYVKVYLESFCEDVPSGKL
- ELISPOT Responses (SFC/10^6 PBMC) ([1]; donor delta): SE(265) SFC/10^6 PBMC
- Responding cells (% CD4) (CD4+ T cells; donor delta): 0%
- Responding cells (% CD8) (CD8+ T cells; donor delta): 0.23%

Sequence: VTTERKTPRVTGGGAMAGAS
- ELISPOT Responses (SFC/10^6 PBMC) ([1]; donor eight): 285 SFC/10^6 PBMC
- ELISPOT Responses (SFC/10^6 PBMC) ([1]; donor epsilon): 322 SFC/10^6 PBMC
- ELISPOT Responses (SFC/10^6 PBMC) ([1]; donor two): JD(319) SFC/10^6 PBMC
- Responding cells (% CD4) (CD4+ T cells; donor eight): 0.17%
- Responding cells (% CD8) (CD8+ T cells; donor eight): 0.24%

Sequence: TGGGAMAGASTSAGRKRKSA
- ELISPOT Responses (SFC/10^6 PBMC) ([1]; donor eight): JW(441) SFC/10^6 PBMC
- Responding cells (% CD4) (CD4+ T cells; donor eight): JW(0.01/0.01) %
- Responding cells (% CD8) (CD8+ T cells; donor eight): JW(0.01/0.01) %
